Source: patent US5104869A, “Renin inhibitors” (American Cyanamid Company, priority 1990, dated 1992)
pIC50: −log10 of the molar value.

molecular target: T1, human kidney renin (Homo sapiens, UniProt P00797); experiment: Radioimmunoassay Screen for Renin Inhibitors (in vitro angiotensin I generation, quantitated by radioimmunoassay); assay type: biochemical; conditions: purified human plasma angiotensinogen, pH 6.0, one hour at 37° C., read-out: Renin Inhibiton IC50
T1 construct: Human renin was prepared from human kidney; from tissue; host or cells: human kidney
T1 sequence (P00797 67-406): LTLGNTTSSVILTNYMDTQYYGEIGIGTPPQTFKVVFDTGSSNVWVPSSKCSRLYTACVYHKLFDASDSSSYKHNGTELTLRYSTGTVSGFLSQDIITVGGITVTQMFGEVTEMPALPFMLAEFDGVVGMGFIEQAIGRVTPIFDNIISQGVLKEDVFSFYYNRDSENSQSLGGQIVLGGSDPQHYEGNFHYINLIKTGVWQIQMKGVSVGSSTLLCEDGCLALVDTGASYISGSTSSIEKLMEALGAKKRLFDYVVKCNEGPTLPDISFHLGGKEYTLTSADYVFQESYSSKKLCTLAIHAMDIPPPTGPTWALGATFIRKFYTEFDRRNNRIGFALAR
Method: The in vitro method for the screening of anti-renin compounds involves, first, angiotensin I generation, and second, the quantitation of the angiotensin I produced by radioimmunoassay.
The incubation medium consisted of 20 μl of purified human plasma angiotensinogen (1); 10 μl of human kidney renin (2); 5 μl of phenylmethylsulfonyl fluoride; 10 μl of disodium EDTA (10 mM); 10 μl of antirenin compound (5×10^-3, 5×10^-4, 5×10^-5) in dimethylformamide, or ethanol and a suitable amount of maleate buffer (77 mM, pH 6.0) to make a final volume of 500 μl. The reaction mixture was incubated for one hour at 37° C. and the enzymatic reaction was stopped by placing the tube in ice-cold water. The angiotensin I generated during the incubation was measured by a radioimmunoassay plasma renin activity kit (Clinical Assays, Inc.).
The incubation medium consisted of either 100 μl aliquots of the above reaction mixture or a standard amount of angiotensin I; 1000 μl of phosphate buffer (100 mM, pH 7.6) and 100 μl of (^125 I)angiotensinin a gamma-coat, tube. After three hours of incubation at room temperature, the tubes were decanted, and the radioactivity of each tube was determined in a gamma counter. Duplicate determinations were performed for each incubation. The results were expressed in ng of angiotensin I generated per ml of generation medium per hour of incubation (ng/AI/ml/hr).
(1) The human plasma angiotensinogen derived from the blood of a person receiving oral contraceptive pills was purified by chromatography on a pepstatinaminohexyl-agarose column.
(2) Human renin was prepared from human kidney.

Structure (SMILES) | pIC50
CC(C)C[C@H](NC(=O)[C@@H](CC(=O)N1CCOCC1)Cc1ccccc1)C(=O)N[C@@H](CC(C)C)[C@@H](O)c1nccs1 | 4.38
CC(C)C[C@H](NC(=O)[C@@H](CC(=O)OC(C)(C)C)Cc1ccccc1)C(=O)N[C@@H](CC(C)C)[C@@H](O)c1nccs1 | 5.19
CC(C)C[C@H](NC(=O)[C@@H](CC(=O)OC(C)(C)C)Cc1ccccc1)C(=O)N[C@@H](CC1CCCCC1)[C@@H](O)c1nccs1 | 6.80
O=C(C[C@@H](Cc1cccc2ccccc12)C(=O)N[C@@H](Cc1cnc[nH]1)C(=O)N[C@@H](CC1CCCCC1)[C@@H](O)c1nccs1)NCCOc1ccccn1 | 6.24
